How the values were obtained:
Experiment in all cases: relative viability (nuclei count vs DMSO), 5 days (fraction); higher = more cells survive
ABC-1 = test system: ABC-1
In short: (§1)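 Medians of duplicate plates are given as relative viability. That measure is the nuclei count in treated wells divided by the count in vehicle wells. Counts were taken on 4× images of lung cancer cell lines in 1536-well plates, 5 days after pin-tool dosing the day after seeding with one drug alone or a fixed anchor-drug dose plus five library-drug doses (not always all listed) in √10 steps.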

HOP-62 = test system: HOP-62
In short: as §1

NCI-H1355 = test system: NCI-H1355
In short: as §1

NCI-H1623 = test system: NCI-H1623
In short: as §1

NCI-H2009 = test system: NCI-H2009
In short: as §1

NCI-H23 = test system: NCI-H23
In short: as §1

NCI-H322M = test system: NCI-H322M
In short: as §1

UMC-11 = test system: UMC-11
In short: as §1

NCI-H1648 = test system: NCI-H1648
In short: as §1

NCI-H1703 = test system: NCI-H1703
In short: as §1

COCC1(CO)C(=O)C2CCN1CC2 (centres undefined) [PRIMA-1MET] + CCNC(=O)c1noc(-c2cc(C(C)C)c(O)cc2O)c1-c1ccc(CN2CCOCC2)cc1 [Luminespib] (partner 0.01 µM)
relative viability (ABC-1; first compound 0.2 µM): 0.534 | relative viability (ABC-1; first compound 0.6325 µM): 0.375 | relative viability (ABC-1; first compound 2 µM): 0.393 | relative viability (ABC-1; first compound 6.325 µM): 0.607 | relative viability (ABC-1; first compound 20 µM): 0.171 | relative viability (HOP-62; first compound 0.2 µM): 0.989 | relative viability (HOP-62; first compound 0.6325 µM): 0.923 | relative viability (HOP-62; first compound 2 µM): 0.923 | relative viability (HOP-62; first compound 6.325 µM): 0.91 | relative viability (HOP-62; first compound 20 µM): 0.786 | relative viability (NCI-H1355; first compound 0.2 µM): 0.859 | relative viability (NCI-H1355; first compound 0.6325 µM): 0.556 | relative viability (NCI-H1355; first compound 2 µM): 0.695 | relative viability (NCI-H1355; first compound 6.325 µM): 0.734 | relative viability (NCI-H1355; first compound 20 µM): 0.673 | relative viability (NCI-H1623; first compound 0.2 µM): 0.592 | relative viability (NCI-H1623; first compound 0.6325 µM): 0.37 | relative viability (NCI-H1623; first compound 2 µM): 0.446 | relative viability (NCI-H1623; first compound 6.325 µM): 0.426 | relative viability (NCI-H1623; first compound 20 µM): 0.247 | relative viability (NCI-H2009; first compound 0.2 µM): 0.981 | relative viability (NCI-H2009; first compound 0.6325 µM): 0.97 | relative viability (NCI-H2009; first compound 2 µM): 1.1 | relative viability (NCI-H2009; first compound 6.325 µM): 1.04 | relative viability (NCI-H2009; first compound 20 µM): 0.307 | relative viability (NCI-H23; first compound 0.2 µM): 0.24 | relative viability (NCI-H23; first compound 0.6325 µM): 0.234 | relative viability (NCI-H23; first compound 2 µM): 0.22 | relative viability (NCI-H23; first compound 6.325 µM): 0.209 | relative viability (NCI-H23; first compound 20 µM): 0.0464 | relative viability (NCI-H322M; first compound 0.2 µM): 0.974 | relative viability (NCI-H322M; first compound 0.6325 µM): 0.809 | relative viability (NCI-H322M; first compound 6.325 µM): 0.958 | relative viability (NCI-H322M; first compound 20 µM): 0.556 | relative viability (UMC-11; first compound 0.2 µM): 1.06 | relative viability (UMC-11; first compound 0.6325 µM): 0.818 | relative viability (UMC-11; first compound 2 µM): 0.978 | relative viability (UMC-11; first compound 6.325 µM): 0.988 | relative viability (UMC-11; first compound 20 µM): 0.917

COCC1(CO)C(=O)C2CCN1CC2 (centres undefined) [PRIMA-1MET] + NC(=O)Nc1cc(-c2cccc(F)c2)sc1C(=O)N[C@H]1CCCNC1 [AZD7762] (partner 0.2 µM)
relative viability (ABC-1; first compound 0.2 µM): 0.97 | relative viability (ABC-1; first compound 0.6325 µM): 0.624 | relative viability (ABC-1; first compound 2 µM): 0.952 | relative viability (ABC-1; first compound 6.325 µM): 0.775 | relative viability (ABC-1; first compound 20 µM): 0.376 | relative viability (HOP-62; first compound 0.2 µM): 0.653 | relative viability (HOP-62; first compound 0.6325 µM): 0.387 | relative viability (HOP-62; first compound 2 µM): 0.482 | relative viability (HOP-62; first compound 6.325 µM): 0.655 | relative viability (HOP-62; first compound 20 µM): 0.273 | relative viability (NCI-H1355; first compound 0.2 µM): 0.887 | relative viability (NCI-H1355; first compound 0.6325 µM): 0.61 | relative viability (NCI-H1355; first compound 2 µM): 0.702 | relative viability (NCI-H1355; first compound 6.325 µM): 0.874 | relative viability (NCI-H1355; first compound 20 µM): 0.72 | relative viability (NCI-H1648; first compound 0.2 µM): 0.729 | relative viability (NCI-H1648; first compound 2 µM): 0.655 | relative viability (NCI-H1648; first compound 20 µM): 0.663 | relative viability (NCI-H1703; first compound 0.6325 µM): 0.158 | relative viability (NCI-H1703; first compound 6.325 µM): 0.121 | relative viability (NCI-H1703; first compound 20 µM): 0.0239 | relative viability (NCI-H23; first compound 0.2 µM): 0.212 | relative viability (NCI-H23; first compound 0.6325 µM): 0.225 | relative viability (NCI-H23; first compound 2 µM): 0.231 | relative viability (NCI-H23; first compound 6.325 µM): 0.209 | relative viability (NCI-H23; first compound 20 µM): 0.102 | relative viability (NCI-H322M; first compound 0.2 µM): 0.657 | relative viability (NCI-H322M; first compound 0.6325 µM): 0.558 | relative viability (NCI-H322M; first compound 6.325 µM): 0.59 | relative viability (NCI-H322M; first compound 20 µM): 0.406

Reference: the supplement of paper PMC10307832
